In patent US20250376476A1, “Crystalline forms of a HER2 tyrosine kinase inhibitor” (Boehringer Ingelheim International GmbH, priority 2024, published 2025):

Key:
Type in all cases: physicochemical
[1] = Suspension of form IV and form III stirred at 35° C. for 18 hrs, solid analyzed by XRPD; conditions: mixture of form IV and form III
Protocol: (§1) A suspension of zongertinib form IV (e.g. prepared according to any one of the procedures of reference example 1.3) and zongertinib form III (e.g. prepared according to reference example 1.2) in 20V of 1:1 (vol:vol) IPAc/water was stirred using overhead agitation at 35° C. for 18 hrs. The solid was collected and analyzed by XRPD confirming receipt of form XX.
as §1, with “water” for “1:1 (vol:vol) IPAc/water”
XRPD was performed with a Bruker D8 Discover X-ray diffractometer. The instrument detector allows for two-dimensional diffractograms to be acquired. Solid samples were placed on a zero-background diffraction plate. The results were processed using DIFFRAC.EVA software. The diffraction pattern was integrated from two-dimensional to one-dimensional. The Kα2 contribution was stripped, no smoothing or background correction was performed. A typical precision of the 2-Theta values is in the range of ±0.2° 2-Theta, preferably in the range of ±0.1° 2-Theta. […]

[2] = Form IV slurry experiments in aqueous organic solvents with heat-cool cycles, solids analyzed by XRPD; conditions: 20 to 50° C. heat-cool cycles
Protocol: Zongertinib form IV (e.g. prepared according to any one of the procedures of reference example 1.3) was slurried in different aqueous organic solvent systems (12V, composition according to table 1) at a temperature ranging from 20 to 50° C. using a magnetic stir bar. Heat-cool-cycles were conducted using automation available on the Junior robot and as per the below program: • 1. Set stirring to 350 rpm (by means of magnetic stir bars) • 2. Heat to 50° C. (10° C./minute) • 3. Hold at 50° C. for 150 minutes • 4. Cool to 20° C. (−1° C./minute) • 5. Hold at 20° C. for 120 minutes • 6. Heat to 50° C. (5° C./minute) • 7. Hold at 50° C. for 120 minutes • 8. Cool to 20° C. (−1° C./minute) • 9. Set stirring to 0 rpm • 10. Hold at 20° C. for 16 hrs
The solids were collected and analyzed by XRPD.
XRPD was performed with a Bruker D8 Discover X-ray diffractometer. The instrument detector allows for two-dimensional diffractograms to be acquired. Solid samples were placed on a zero-background diffraction plate. The results were processed using DIFFRAC.EVA software. The diffraction pattern was integrated from two-dimensional to one-dimensional. The Kα2 contribution was stripped, no smoothing or background correction was performed. A typical precision of the 2-Theta values is in the range of ±0.2° 2-Theta, preferably in the range of ±0.1° 2-Theta. Thus, a reflection that usually appears at 7.0 2-Theta for example can appear between 6.8° and 7.2° 2-Theta, preferably between 6.9° and 7.1° 2-Theta on most X-ray diffractometers under standard conditions.

[3] = Thermal gravimetric analysis (TGA); conditions: ambient to 600° C., heating rate 20° C./min
Protocol: TGA was performed with a TA Instruments TGA 550. Samples (5 mg) were heated in aluminium pans with a sealed aluminium lid from ambient temperature to 600° C. at a heating rate of 20° C./min. Processing was completed using TRIOS software.

[4] = Polarized light microscopy (PLM), crystal habit
Description: Crystal habits of zongertinib forms XXIV, XIX and XX have been elucidated using polarized light microscopy. Depending on the starting material, form XVIII can be obtained in different crystal shapes.

[5] = Excessive drying of form XXIV and/or form XIX; conditions: typically temperatures >50° C. under vacuum
Protocol: Form XVIII is formed upon excessive drying of form XXIV and/or form XIX (e.g. prepared according to any one of examples 1.1 to 1.4 herein). Typically, drying is performed at temperatures >50° C. under vacuum.

For C=CC(=O)NC1CCN(c2ncc3ncnc(Nc4ccc(Oc5ccc6c(c5)ncn6C)c(C)c4)c3n2)CC1 [Form IV, zongertinib], the “Solid form by XRPD after stirring suspension” value ([1]; 20V of 1:1 (vol:vol) IPAc/water) was “form XX”, the “Solid form by XRPD after stirring suspension” value ([1]; 20V of water) was “form XX” and the “XRPD results after slurry” value ([2]; 12V 1:1 (vol:vol) ACN:water) was “Form XIX”. For the same compound, the “XRPD results after slurry” value ([2]; 12V 1:1 (vol:vol) EtOH:water) was “Form XIX”, the “XRPD results after slurry” value ([2]; 12V 1:1 (vol:vol) IPAc:water) was “Form XXIV” and the “XRPD results after slurry” value ([2]; 12V 2:1 (vol:vol) THF:water) was “Form XXIV”.
With C=CC(=O)NC1CCN(c2ncc3ncnc(Nc4ccc(Oc5ccc6c(c5)ncn6C)c(C)c4)c3n2)CC1 [Form XIX, zongertinib] the “TGA sample decomposition start temperature” value ([3]; listed as form XIX) was “about 327 °C” and the “Crystal Habit” value ([4]; listed as XIX) was “lath-shaped crystals”.
In the case of C=CC(=O)NC1CCN(c2ncc3ncnc(Nc4ccc(Oc5ccc6c(c5)ncn6C)c(C)c4)c3n2)CC1 [Form XVIII, zongertinib], the “TGA sample decomposition start temperature” value ([3]; listed as form XVIII) is reported as “about 394 °C”, the “Crystal Habit” value ([4]; listed as XVIII (drying of XIX)) is reported as “lath-shaped crystals” and the “Crystal Habit” value ([4]; listed as XVIII (drying of XXIV)) is reported as “plate-shaped and lath shaped crystals”.
In the case of C=CC(=O)NC1CCN(c2ncc3ncnc(Nc4ccc(Oc5ccc6c(c5)ncn6C)c(C)c4)c3n2)CC1 [Form XX, zongertinib], the “TGA sample decomposition start temperature” value ([3]; listed as form XX) is reported as “about 393 °C” and the “Crystal Habit” value ([4]; listed as XX) is reported as “needle-shaped crystals”.
With C=CC(=O)NC1CCN(c2ncc3ncnc(Nc4ccc(Oc5ccc6c(c5)ncn6C)c(C)c4)c3n2)CC1 [Form XXIV, zongertinib] the “Form obtained upon excessive drying” value [5] was “Form XVIII”, the “TGA sample decomposition start temperature” value ([3]; listed as form XXIV) was “about 415 °C” and the “Crystal Habit” value ([4]; listed as XXIV) was “plate-shaped and lath shaped crystals”.
